{
  "source": "patent US20030124640A1",
  "about": "“Predictive assay for the outcome of IVF” (Royal Free Hospital School of Medicine, priority 1996, published 2003)",
  "origin": "cited, not measured here",
  "key": {"[1]": {"system": "11βHSD1"}, "[2]": {"target": "T1, 11β-HSD2 (Homo sapiens, UniProt P80365)", "T1 sequence (P80365 1-405)": "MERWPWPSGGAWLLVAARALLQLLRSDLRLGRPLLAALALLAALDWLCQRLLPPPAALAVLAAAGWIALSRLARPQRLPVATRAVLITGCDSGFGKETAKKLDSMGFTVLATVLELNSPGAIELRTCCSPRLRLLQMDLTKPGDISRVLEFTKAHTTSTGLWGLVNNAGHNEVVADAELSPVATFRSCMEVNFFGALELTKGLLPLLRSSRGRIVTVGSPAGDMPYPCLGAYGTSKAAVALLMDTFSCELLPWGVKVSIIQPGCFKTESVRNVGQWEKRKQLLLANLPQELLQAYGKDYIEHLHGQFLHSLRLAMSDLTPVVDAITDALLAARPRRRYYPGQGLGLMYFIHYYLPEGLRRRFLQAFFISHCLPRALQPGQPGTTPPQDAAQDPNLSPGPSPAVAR", "settings": "renal isoform 11β-HSD2, NAD+ dependent 11β-dehydrogenase"}, "[3]": {"system": "hepatic 11β-HSD"}, "[4]": {"target": "T2, renal 11β-HSD (Homo sapiens, UniProt P80365)", "T2 sequence (P80365 1-405)": "T1 sequence (P80365 1-405)"}, "[5]": {"system": "ovarian 11β-HSD", "settings": "for Inhibition of 11β-HSD activity: cultured human granulosa-lutein cells; for Acute effect on ovarian 11β-HSD activity: in vitro"}, "[6]": {"settings": "hepatic isoform 11βHSD1, NADP(H) cofactor, read-out: Km for 11β-dehydrogenase activity"}},
  "note": "Read-outs that look alike come from different tables or passages of the source.",
  "data": [
    {"compound": "C[C@]12C[C@H](O)[C@H]3[C@@H](CCC4=CC(=O)CC[C@@]43C)[C@@H]1CC[C@@H]2C(=O)CO", "note": "[corticosterone]", "values": [
      {"measurement": "Km", "setting": "[1]; [6]", "value": "~2", "unit": "µM"},
      {"measurement": "Km", "setting": "[2]", "value": 0.026, "unit": "µM"}
    ]},
    {"compound": "C[C@]12CCC(=O)C=C1CC[C@@H]1[C@@H]2[C@@H](O)C[C@@]2(C)[C@H]1CC[C@]2(O)C(=O)CO", "note": "[cortisol]", "values": [
      {"measurement": "Km", "setting": "[1]; [6]", "value": 17, "unit": "µM"},
      {"measurement": "Km", "setting": "[2]", "value": 0.04, "unit": "µM"}
    ]},
    {"compound": "C[C@]12CCC(=O)C=C1CC[C@@H]1[C@@H]2C(=O)C[C@@]2(C)[C@H]1CC[C@]2(O)C(=O)CO", "note": "[cortisone]", "values": [
      {"measurement": "Km", "setting": "[1]; hepatic isoform 11βHSD1, cortisone to cortisol, read-out: Km for cortisone (11-ketosteroid reductase activity)", "value": "0.14 to 0.272", "unit": "µM"}
    ]},
    {"compound": "C[C@]12CC[C@@H]3c4ccc(O)cc4CC[C@H]3[C@@H]1CC[C@@H]2O", "note": "[oestradiol]", "values": [
      {"measurement": "Effect on hepatic 11β-HSD activity in vivo", "setting": "[3]", "value": "inhibits"}
    ]},
    {"compound": "CC(=O)[C@H]1CC[C@H]2[C@@H]3CC=C4C[C@@H](O)CC[C@]4(C)[C@H]3CC[C@]12C", "note": "[pregnenolone]", "values": [
      {"measurement": "Acute effect on renal 11β-HSD activity", "setting": "[4]", "value": "inhibit"},
      {"measurement": "Inhibition of 11β-HSD activity", "setting": "[5]", "value": "can inhibit"},
      {"measurement": "Acute effect on ovarian 11β-HSD activity", "setting": "[5]", "value": "inhibit"}
    ]},
    {"compound": "CC(=O)[C@H]1CC[C@H]2[C@@H]3CCC4=CC(=O)CC[C@]4(C)[C@H]3CC[C@]12C", "note": "[progesterone]", "values": [
      {"measurement": "Acute effect on renal 11β-HSD activity", "setting": "[4]", "value": "inhibit"},
      {"measurement": "Inhibition of 11β-HSD activity", "setting": "[5]", "value": "can inhibit"},
      {"measurement": "Acute effect on ovarian 11β-HSD activity", "setting": "[5]", "value": "inhibit"}
    ]}
  ]
}
